Source: PubChem BioAssay (NCI)
“And” between values parts separate entries of the source, which are not always exact repeats. Equal entries are not always repeated.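 Five concentrations, 48 hours, 96-well plates. Abbreviation: GI50, concentration required for 50% inhibition of growth. Definition used: TGI = concentration required for complete inhibition of growth.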

Key:
Test in all cases: DTP human tumour cell line panel, 48 h
CAKI-1 renal = test system: CAKI-1 renal
HS 578T breast = test system: HS 578T breast
LOX IMVI melanoma = test system: LOX IMVI melanoma
M14 melanoma = test system: M14 melanoma
MDA-MB-435 = test system: MDA-MB-435
NCI-H23 lung = test system: NCI-H23 lung
NCI/ADR-RES ovarian = test system: NCI/ADR-RES ovarian
SF-268 CNS = test system: SF-268 CNS
SNB-19 CNS = test system: SNB-19 CNS
TK-10 renal = test system: TK-10 renal

Row | SMILES | GI50 (CAKI-1 renal) | TGI (CAKI-1 renal) | GI50 (HS 578T breast) | TGI (HS 578T breast) | GI50 (LOX IMVI melanoma) | TGI (LOX IMVI melanoma) | GI50 (M14 melanoma) | TGI (M14 melanoma) | GI50 (MDA-MB-435) | TGI (MDA-MB-435) | GI50 (NCI-H23 lung) | TGI (NCI-H23 lung) | GI50 (NCI/ADR-RES ovarian) | TGI (NCI/ADR-RES ovarian) | GI50 (SF-268 CNS) | TGI (SF-268 CNS) | GI50 (SNB-19 CNS) | TGI (SNB-19 CNS) | GI50 (TK-10 renal) | TGI (TK-10 renal)
1 | CCN(CC)CCCC(C)Nc1cnc(C(=O)Nc2ccc(Cl)c3cccnc23)cn1 (stereo not given) | 1.78 µM | 4.1 µM | 3.06 µM | 13 µM | 1.78 µM | 3.3 µM | 1.79 µM | 3.59 µM | 1.81 µM | 3.43 µM | 5.04 µM | 19.6 µM | 2.55 µM | 9.33 µM | 3.23 µM | 15 µM | 3.37 µM | 13.9 µM | 9.09 µM | 21.9 µM
2 | CCC(C)(C)C(=O)O[C@H]1C[C@@H](C)C=C2C=C[C@H](C)[C@H](CC[C@@H]3C[C@@H](O)CC(=O)O3)[C@H]21 | 0.941 µM | 3.73 µM and 8.56 µM | 2.7 µM | 16.4 µM | 0.39 µM | 6.43 µM | 2.89 µM | 16.7 µM and 8.09 µM | 8.03 µM | 21 µM | 1.79 µM | 15.3 µM and 3.55 µM | 0.614 µM | 12.1 µM | 0.715 µM | 15.4 µM | 3.13 µM | 19.9 µM | 5.38 µM | 18.2 µM
3 | COc1ccc2c(c1)C(=O)/C(=C/c1cccc(OCC(=O)Nc3nc4c(s3)CCCC4)c1)O2 | 0.383 µM | 0.804 µM | 2.28 µM | 10.1 µM | 0.0248 µM | 0.066 µM | 1.81 µM | 4.51 µM | 2.59 µM | 9.42 µM | 0.636 µM | 5.62 µM | 2.12 µM | 6.37 µM | 0.314 µM | 1.08 µM | 13.9 µM | 30.4 µM | 0.45 µM | 0.934 µM
4 | Cn1ccnc1C(=O)/C=C/c1ccc(C(=O)Nc2ccc(Cl)cc2)cc1 | 1.17 µM | > 33.3 µM | 0.919 µM | > 33.3 µM | 0.686 µM | 1.56 µM | 0.968 µM | 4.96 µM | 1.37 µM | > 33.3 µM | 1.25 µM | 7.62 µM | 1.06 µM | > 33.3 µM | 1.37 µM | > 33.3 µM | 0.987 µM | > 33.3 µM | 0.973 µM | 17.2 µM
5 | COC(=O)NC1C(C)OC(OC2C/C=C(/C)C3C=CC4C(OC5CC(OC6CC(O)C(OC7CC(O)C(OC)C(C)O7)C(C)O6)C(O)C(C)O5)C(C)CC(C)C4C3(C)/C(O)=C3\C(=O)OC4(CC(C)C(CO)=CC4/C=C\2C)C3=O)CC1(C)[N+](=O)[O-] (stereo not given) |  | 47.3 µM and 41.1 µM |  | 40.4 µM |  | 28 µM | 16.9 µM | 17.2 µM and 32.7 µM |  | 17 µM | 8.68 µM | 17.2 µM and 27.8 µM | > 50 µM | > 100 µM |  | 50 µM and 55.1 µM | 15.9 µM | 50 µM and 52.4 µM | 25.8 µM | 32.5 µM and 81.2 µM
6 | CC1=C[C@H]2c3c(c(O)c(O)c4oc5c(C)cccc5c(=O)c34)[C@H](c3cc(O)c(O)c4oc5c(C)cccc5c(=O)c34)[C@H]2C(C)(C)C1 | 1.5 µM | 9.08 µM | 1.93 µM | 9.19 µM | 0.966 µM | 2.22 µM | 1.52 µM | 5.87 µM | 1.63 µM | 3.87 µM | 1.24 µM | 3.42 µM | 2.44 µM | 7.15 µM | 1.74 µM | 11.7 µM | 2.27 µM | 11.2 µM | 2.51 µM | 11.7 µM
7 | c1ccc(Cn2cc3c(c2-c2ccccc2)CCc2cnoc2-3)cc1 | 4.4 µM | > 100 µM | 3.88 µM | 26.4 µM | 4.23 µM | > 100 µM | 4.89 µM | > 100 µM | 1.89 µM | 7.18 µM | 4.92 µM | 69.2 µM | 2.75 µM | 9.53 µM | 8.05 µM | > 100 µM | 4.24 µM | > 100 µM | 8.22 µM | > 100 µM
8 | O=C1CC(c2ccc(N3CCOCC3)cc2)(c2ccsc2)NC(=O)C1Sc1ccccc1Cl (stereo not given) | 28.4 µM | > 100 µM | 3.66 µM | > 100 µM | 31.5 µM | > 100 µM | 60.7 µM | > 100 µM | 88.6 µM | > 100 µM | 65.5 µM | > 100 µM | 46.7 µM | > 100 µM | 20.2 µM | > 100 µM | 30.3 µM | > 100 µM | > 100 µM | > 100 µM
9 | CC1=C(C(=O)Nc2ccc(F)c(Cl)c2)C(c2ccccc2Cl)NC(=S)N1 (stereo not given) | 37 µM | > 50 µM | > 50 µM | > 50 µM | 15.1 µM | > 50 µM | 34.9 µM | > 50 µM | 30.1 µM | > 50 µM | > 50 µM | > 50 µM | 18 µM | 49.1 µM | 27.6 µM | > 50 µM | 40 µM | > 50 µM | 48.8 µM | > 50 µM
